Results taken from patent US20240300987A1, “TRAP1 INHIBITOR AND USE THEREOF” (SMARTIN BIO INC., priority 2021, published 2024).
Entries after “also recorded” stand apart in the source; their conditions may differ.

Assays:
OIR mice = assay: Oxygen-induced retinopathy (OIR) model, CD31 whole-mount staining of retina; format: in vivo; settings: intravitreal injection at P12 or eye drop administration P12 to P17
Source text: As TRAP1+/+(wild-type), TRAP1+/−(hetero), and TRAP1−/− (knockout) experimental mice, Black6 J strain mice were used. On the 7th day after birth, a baby mouse and a mother mouse were placed in an in vivo chamber (Coy-lab) and supplied with high oxygen (75% O2). On the 12th day after birth, the baby mouse was taken out of the in vivo chamber. Then, a surrogate mother was put thereinto, and normal oxygen (21% O2) was supplied. Then, the eyeball of the baby mouse was removed on the 17th day after birth and used for experiments.
In the process of forming the in vivo oxygen-induced retinopathy (OIR) model, the baby mouse was treated with eye drops for 6 days, from the day when being taken out to normal oxygen after being supplied with high oxygen until the day their eyes were collected (on the 12th day to 17th day after birth). Treatment was performed three times a day at intervals of 4 hours. As a drug treatment method, Mito Q was diluted to a concentration of 1 mM in Liposic and dropped 10 uL into the eyes of the baby mouse. Then, the eyes were allowed to blink for 1 minute. After wiping the residual amount outside the eyeball with a cotton swab, the mouse was returned to the care of the mother mouse. […]

[1] = molecular target: T1, human full-length TRAP1 protein (Homo sapiens, UniProt Q12931); assay: Fluorescence polarization (FP) analysis using SB-TM2 probe (client-binding site); settings: for IC50: FP analysis using SB-TM2; for Activity compared to that of SMX: TRAP1 binding, relative to SMX of the same table; for binding capacity compared to that of SMX (MitoQ): result in words
T1 construct: containing human full-length TRAP1 protein (400 nM); hexahistidine tag followed by TEV protease cleavage site (N, cleaved yes); made in house; host or cells: E. coli BL21 (DE3)
T1 sequence (Q12931 60-704): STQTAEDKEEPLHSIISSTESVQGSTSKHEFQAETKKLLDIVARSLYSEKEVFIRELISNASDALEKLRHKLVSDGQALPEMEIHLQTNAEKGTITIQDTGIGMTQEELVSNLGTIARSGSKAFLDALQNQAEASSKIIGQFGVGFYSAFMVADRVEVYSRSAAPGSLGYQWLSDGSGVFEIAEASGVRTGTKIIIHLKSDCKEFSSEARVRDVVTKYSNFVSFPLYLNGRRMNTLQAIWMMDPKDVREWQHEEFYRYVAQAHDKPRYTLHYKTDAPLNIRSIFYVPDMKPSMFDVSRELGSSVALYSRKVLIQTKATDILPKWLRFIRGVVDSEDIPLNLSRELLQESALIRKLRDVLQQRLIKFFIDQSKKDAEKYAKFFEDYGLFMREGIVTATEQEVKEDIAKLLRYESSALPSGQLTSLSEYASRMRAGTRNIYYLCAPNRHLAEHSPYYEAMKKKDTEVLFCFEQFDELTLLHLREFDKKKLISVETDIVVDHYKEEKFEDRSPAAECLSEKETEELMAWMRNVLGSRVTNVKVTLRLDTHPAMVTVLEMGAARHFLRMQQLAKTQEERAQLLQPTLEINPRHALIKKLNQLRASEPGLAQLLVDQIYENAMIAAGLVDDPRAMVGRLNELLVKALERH
Experimental: The substance to be analyzed (at a final volume of 100 μL) was added to FP buffer ([…], 2.7 mM KCl, 4.3 mM Na2HPO4, 1.4 mM KH2PO4 (pH 7.3), 1 mM DTT, 2 mM MgCl2, and 0.1 mg/mL BSA) containing human full-length TRAP1 protein (400 nM) and SB-TM2 probe (100 nM) and then reacted at room temperature for 1 hour (96-well plate). Using a SYNERGY NEO microplate reader, FP was measured at an excitation wavelength set to 440 nm and an emission wavelength set to 500 nm.

TRAP1 [2] = molecular target: T2, TRAP1 (Homo sapiens, UniProt Q12931); assay: ATPase activity assay (PiColorLock Gold Phosphate Detection Kit); format: biochemical; design: hexahistidine tag followed by TEV protease cleavage site (N, cleaved yes); made in house; host or cells: E. coli BL21 (DE3); settings: result in words
T2 sequence (Q12931 60-704): T1 sequence (Q12931 60-704)
Experimental: The ATPase activity of TRAP1 was measured using the PiColorLock Gold Phosphate Detection Kit (Abcam). Then, 0.5 µM TRAP1 (wild-type or mutation) was pre-incubated along with inhibitors at various concentrations for 30 minutes and then incubated with 0.2 mM ATP at 37° C. for 3 hours in ATPase activity assay buffer containing 50 mM Tris-HCl, 20 mM KCl, and 6 mM MgCl (pH 7.4). Next, 20 µL of a mixture of a PiColorLock Gold reagent and an accelerator (100:1) was added to each sample (100 μL). After 5 minutes of incubation, 10 μL of a stabilizer was added to stop color development. Absorbance was measured at 620 nm using a microplate reader (Synergy NEO, BioTek). The background signal was normalized by subtracting the absorbance of unreacted samples.

HIF1α = assay: Drug activity assay using MIO-M1 HRE/GFP cell line under hypoxia; format: cell-based; settings: for IC50: HIF1α inhibitory activity in MIO-M1 cells, 1% O2 24 hours; for Activity compared to that of SMX: HIF1α inhibition, relative to SMX of the same table
Experimental: After transfection (jetPRIME kit) of MIO-M1 Müller cells with 5HRE/GFP plasmid (Addgene, #46926), the cells transfected with the plasmid were selected using 1 mg/ml of G418 (Neomycin), a selectable marker. A stable cell line was constructed by selecting cells, growing in a colony form, from single cells. The prepared MIO-M1-HRE/GFP stable cell line was dispensed into a 96-well plate and treated with drugs at different concentrations the next day. After being exposed to a hypoxic environment (1% O2) for 24 hours, the GFP (Ex/Em: 488/507) fluorescence signal was measured using a SYNERGY NEO microplate reader (BioTek Instrument). The relative fluorescence value was calculated on the basis of 100% of the negative control group.

22Rv1 cells = assay: In vivo mouse xenograft; design: species or system mice; settings: 3 mg/Kg intraperitoneally daily
Experimental: Immunodeficient athymic nude mice (male, 8 weeks old) were purchased from OrientBio. The mice were maintained in a pathogen-free facility (12-hour dark/light cycle) at the UNIST In Vivo Research Center and supplied with standard diet and water. All animal experiments were approved by UNIST ([…]-19-11). 22Rv1 cells (1×10^7) were injected subcutaneously into both sides of the nude mice. When the tumor size reached approximately 100 mm^3, 3 mg/Kg drugs (MitoQ, SB-U014, and SB-U015) and vehicle (DMSO) dissolved in 20% cremophor EL (Sigma) in PBS were administered intraperitoneally daily. The tumor volume was measured daily using an electronic caliper and calculated using the following equation: V=½× (width) 2× length. When the experiment was completed, animals were euthanized, and the tumor was collected for histology and western blot. Band intensities were quantified using ImageJ software (National Institute of Health, USA). In this case, western blot was performed in the same manner as described above.

TRAP1 [3] = molecular target: T2, TRAP1; assay: Protein expression analysis by western blot in 22Rv1 cells, TRAP1 inhibition markers; format: cell-based; design: endogenous in cells; host or cells: 22Rv1; settings: 5 µM of each compound, 2 hours
Experimental: Human cancer cell line 22Rv1 was purchased from the American Type Culture Collection (ATCC) and maintained as recommended by the supplier. Briefly, cancer cells were incubated in a DMEM or RPMI medium (GIBCO) containing 10% fetal bovine serum (FBS; ATCC) and 1% penicillin/streptomycin (GIBCO) at 37° C. in a humidified atmosphere of 5% CO2. The cells were not incubated for more than 6 months.
The 22Rv1 cells were treated with 5 µM of each compound, cultured for 2 hours, and then analyzed by western blot.
Cell lysates were separated by SDS-PAGE and transferred to a PVDF membrane. The membrane was blocked with 10% skim milk in TBST (TBS containing 0.05% Tween-20) for 1 hour at room temperature and incubated with primary antibodies overnight at 4° C. The membrane was washed with TBST three times for 1 hour and incubated with secondary antibodies (1:5000) diluted in 10% skim milk in TBST for 1 hour. The membrane was washed with TBST three times and visualized using an enhanced chemiluminescence detection kit (BioRad).

[4] = 22Rv1 xenograft in nude mice, compared to DMSO
[5] = MIO-M1, 24 h, Table 6, alkyl-TPPs

| Compound | TRAP1 ATPase activity with increasing concentration (TRAP1 [2]) | IC50 ([1]; Table 1, alkyl-TPPs) [µM] | Activity compared to that of SMX ([1]; Table 1) | binding capacity compared to that of SMX (MitoQ) [1] | SDHB and SIRT3 expression (TRAP1 inhibition) (TRAP1 [3]) | IC50 (HIF1α; [5]) [µM] | Activity compared to that of SMX (HIF1α; Table 6) | other results |
| --- | --- | --- | --- | --- | --- | --- | --- | --- |
| COC1=C(OC)C(=O)C(C[P+](c2ccccc2)(c2ccccc2)c2ccccc2)=C(C)C1=O [MitoQ^S, ((4,5-Dimethoxy-2-methyl-3,6-dioxocyclohexa-1,4-dien-1-yl)methyl)triphenylphosphonium] |  |  |  |  |  |  |  | avascular and neovascular areas in the retina of the OIR model (OIR mice): both avascular and neovascular areas are significantly reduced; also recorded: significantly reduces both avascular and neovascular areas |
| COc1c(Br)c(C)c(CCCCCCCCCC[P+](c2ccccc2)(c2ccccc2)c2ccccc2)c(OC)c1OC [SB-U011, (10-(3-Bromo-4,5,6-trimethoxy-2-methylphenyl)decyl)triphenylphosphonium] | did not show a tendency that the ATPase activity decreased in a concentration-dependent manner |  |  |  |  |  |  | IC50 ([1]; Table 3, other synthetic compounds): 0.684 ± 0.0729 µM; Activity compared to that of SMX ([1]; Table 3): 1.156; IC50 (HIF1α; Table 8, other synthetic compounds): 0.0853 ± 0.0088 µM; Activity compared to that of SMX (HIF1α; Table 8): 6.02 |
| COc1cc(C)c(CCCCCCCCCC[P+](c2ccccc2)(c2ccccc2)c2ccccc2)cc1OC [SB-U015, (10-(4,5-Dimethoxy-2-methylphenyl)decyl)triphenylphosphonium] | did not show a tendency that the ATPase activity decreased in a concentration-dependent manner |  |  |  |  |  |  | IC50 ([1]; Table 4, other synthetic compounds): 1.83 ± 0.285 µM; Activity compared to that of SMX ([1]; Table 4): 0.22; tumor size (22Rv1 cells; [4]): the tumor size became smaller; tumor weight (22Rv1 cells; [4]): the tumor weight decreased; Akt, Cdk4, and Hsp70 in tumors (western blot) (22Rv1 cells; 22Rv1 xenograft tumors): without causing changes in Akt, Cdk4, and Hsp70; SDHB, SIRT3, p-AMPK and CHOP in tumors (western blot) (22Rv1 cells; 22Rv1 xenograft tumors): decreases in SDHB and SIRT3, activated AMPK (p-AMPK), and induced the mitochondrial unfolded protein response (CHOP); IC50 (HIF1α; MIO-M1, 24 h, Table 9, other synthetic compounds): 0.0887 ± 0.0058 µM; Activity compared to that of SMX (HIF1α; Table 9): 3.14 |
| CCCCCCCCCCCCCC[P+](c1ccccc1)(c1ccccc1)c1ccccc1 [TPP-14, Tetradecyltriphenylphosphonium] |  | 0.384 ± 0.0392 | 1.62 | superior to that of SMX | strong effects | 0.034 ± 0.0392 | 13.76 |  |
| CCCCCCCCCCCCCCCC[P+](c1ccccc1)(c1ccccc1)c1ccccc1 [TPP-16, Hexadecyltriphenylphosphonium] |  | 0.309 ± 0.026 | 2.01 | superior to that of SMX; also recorded: twice as strong as that of SMX | strong effects | 0.03 ± 0.026 | 15.59 | binding capacity compared to that of SMX (MitoQ) ([1]; listed as hexadecyl-TPP): superior to that of SMX; also recorded: twice as strong as that of SMX |
